Data set [1] relates to microtubules in living HeLa cells. Nature of the data set: Allosteric modulator assay with PB-GABA-Taxol in living HeLa cells (cellular Kb, α). The settings on record: PB-GABA-Taxol 1.5 μM, verapamil 100 μM, 3 h, 37° C.
Description: In this model, two compounds that engage tubulin at different binding sites influence the binding of each other through cooperativity. […] Smaller cooperativity factors (α) represent stronger effects on binding of the orthosteric probe. For these allosteric modulators, the apparent cellular affinity was defined as Kb, and the mathematical relationship between Kb and α is provided (equation 3).
The experimental method for allosteric binding assays was identical to the competition binding assays described previously. However, because it is inaccurate to describe an allosteric modulator with a competitive inhibitory constant (Ki), we used an allosteric modulator model (Kb) for data analysis. […] The observed occupancy of the orthosteric ligand is defined as KApp and is determined by the equilibrium dissociation constant of the orthosteric ligand (Kd), the concentration of allosteric ligand, its affinity for the receptor (Kb), and the strength by which the allosteric ligand affects receptor binding to the orthosteric ligand as defined by the cooperativity factor (a).
In data set [2] the test system is cellular microtubules (HeLa cells). Kind of data set: Pilot screen of NCI Diversity Set VI: inhibition of binding of PB-GABA-Taxol, with dose-response validation.
For data set [3], the system named is microtubule network of HeLa cells (mScarlet-α-Tubulin). Kind of data set: Confocal microscopy of HeLa cells transfected with mScarlet-α-Tubulin. It counts as cell-based. To be noted: 1 h at 37° C. On the procedure:
(FIG. 28C) Characterization of fluorescent microtubule phenotypes in HeLa cells transiently transfected with mScarlet-a-Tubulin and treated with the microtubule modulators (1 h at 37° C.). […] Scale bars=10 μm.
Cells were washed with PBS before treatment with PB-GABA-Taxol (100 nM) and (±)-verapamil hydrochloride (100 μM), with or without paclitaxel (10 μM) as a competitor, in phenol red-free DMEM supplemented with 10% FBS. Cells were incubated at 37° C. for 3 h prior to imaging by confocal microscopy. For experiments using HeLa cells transfected with mScarlet-α-tubulin, transient transfection was performed using a Invitrogen Lipofectamine 3000 Transfection kit (Thermo, L3000-075). Transfection used a 1× dose of lipid in OptiMEM (4% FBS) for 18 hours before washing of cells with PBS and treatment with the microtubule modulator for 1 h at 37° C.

The target in data set [4] is crosslinked / purified microtubules. To be noted: previously reported; read-out: biochemical Kd for microtubules; cited from earlier work.
The test system of data set [5] is HeLa cells. Nature of the data set: Cellular viability of trypsinized HeLa cells under binding assay conditions. It counts as cell-based. The settings on record: 180 min. On the procedure: Samples contained PB-GABA-Taxol (1.5 μM) unless otherwise noted. Viability was analyzed by flow cytometry at the time points shown. Dead cells were identified by changes in light scattering and staining with propidium iodide (3 μM). Changes in viability were less than 10% at 180 min under the conditions used for saturation binding and competitive binding assays, even in the presence of 100 μM paclitaxel.
For saturation binding assays, HeLa cells were incubated with PB-GABA-Taxol at 37° C. for 180 min in the presence of verapamil (100 μM).

The test system of data set [6] is T1, microtubules in living HeLa cells.
T1 construct: rows headed: PB-GABA-Taxol molecules/cell at saturation; other: calibration beads, flow cytometry; other: HeLa cell volume 4.5; cellular Kd of PB-GABA-Taxol for microtubules; other: HeLa cells, 4% FBS, 37° C., verapamil 100 μM, 3 h; other: 10% FBS vs
Kind of data set: Saturation binding of PB-GABA-Taxol in living HeLa cells by flow cytometry. The procedure: To quantify the affinity of PB-GABA-Taxol for microtubules in living cells (cellular Kd), we developed the saturation binding method shown in FIG. 3. In this assay the cellular Kd was measured by varying the concentration of the fluorescent probe added to cells at equilibrium as established by kinetic assays of probe uptake. Total binding of this probe to specific and non-specific sites in cells in the presence of the efflux inhibitor verapamil was determined by flow cytometry. Non-specific binding was quantified separately by addition of excess paclitaxel with the probe under the same conditions. Subtraction of the linear non-specific binding contribution from the total binding curve was used analyze specific binding of the probe to tubulin of microtubules. […]
OptiMEM medium containing 4% FBS was prepared as 2× stock solutions of different concentrations of PB-GABA-Taxol by serial dilution (final [DMSO]=1.2%). […] The percentage of non-specific binding was determined as non-specific binding divided by total binding. The signal window (SW) was calculated as previously described^2: SW=[(mean top (maximum) signal−mean bottom (minimum) signal)−(3)*(SD top signal+SD bottom signal)]/(SD top signal), where SD=standard deviation.
In general terms: A flow cytometer gives signals particle by particle.

In data set [7] the test system is HeLa cells. Kind of data set: Time to equilibrium / cellular uptake of PB-GABA-Taxol by flow cytometry. To be noted: probe 1.5 μM.
Description: Tubes were incubated in a plate shaker, and at each time point 150 pL of cells were analyzed, in triplicate, in wells containing propidium iodide (3 μM final concentration) to identify live cells by flow cytometry. Median pacific blue fluorescence was plotted as a function of time and half-time measurements were determined using an Exponential One-phase association model (GraphPad Prism 9).
The subject of data set [8] is microtubules (taxane binding site) in living HeLa cells. Kind of data set: Competition binding assay with PB-GABA-Taxol in living HeLa cells (cellular Ki). To be noted: read-out: cellular Ki; PB-GABA-Taxol 1.5 μM, verapamil 100 μM, 37° C., 4% FBS, 3 h.
Description: In this assay the cellular Kd was measured by varying the concentration of the fluorescent probe added to cells at equilibrium as established by kinetic assays of probe uptake. Total binding of this probe to specific and non-specific sites in cells in the presence of the efflux inhibitor verapamil was determined by flow cytometry. Non-specific binding was quantified separately by addition of excess paclitaxel with the probe under the same conditions. Subtraction of the linear non-specific binding contribution from the total binding curve was used analyze specific binding of the probe to tubulin of microtubules. Measurement of this cellular dissociation constant under equilibrium conditions further allowed conversion of the half-maximal inhibitory concentration (IC50) of unlabeled compounds into cellular inhibitory constants using an adaptation of the Cheng-Prusoff equation^44 for competitive modulators (Ki) or the allosteric equation^45 for non-competitive modulators (Kb and the cooperativity factor α) as implemented by GraphPad Prism.
Data set [9] can be described thus: Cytotoxicity assay, 48 h, flow cytometry. Format: cell-based. To be noted: human, HeLa cells. On the procedure:
Trypsinized HeLa cells were resuspended at 40,000 cells/mL in DMEM medium containing 10% FBS and seeded at 8,000 cells/200 μL/well in a treated 96-well plate. The cells were incubated for 16 h at 37° C. The medium was removed and DMEM medium containing 10% FBS treated with compounds (prepared as 3-fold serial dilutions, 0.1% DMSO content) was added. Cells were treated for 48 h at 37° C. before removal of treated medium, washing cells with PBS (100 μL), and addition of Trypsin-EDTA (50 μL) for 10 min at 37° C. Trypsin was neutralized and cells resuspended by addition of 100 μL of complete medium treated with propidium iodide (final concentration 3 μM). Cellular viabilities were analyzed by gating of cells that lack fluorescence of propidium iodide by flow cytometry.

For data set [10], the system named is HEK293 cells expressing PKCβI-mVenus. Kind of data set: Kinetics of uptake of probes in HEK293 cells transiently transfected with PKCβI-mVenus. The settings on record: probe 1 μM, room temperature, BIM1 2 μM, 4% FBS. It counts as cell-based. The procedure:
Cells were treated with probes and analyzed by flow cytometry. […] [BIM1]=2 μM. [FBS]=4%.
(§1) To investigate the potential for quantitative analysis of binding to PKCs expressed in cells, we evaluated whether 1-3 could readily achieve equilibrium, which is necessary for measurements of cellular equilibrium dissociation constants (Kd).
The cells were re-suspended in fresh reduced serum media lacking antibiotics (4% FBS) at a cell density of ˜500,000 cells per mL and were added to a 96-well plate (100 μL per well). […] Fluorescent probes were prepared as absorbance-normalized 1 mM DMSO stock solutions and diluted into reduced serum DMEM media lacking antibiotics (4% FBS) to achieve a final concentration of the probe of 1 μM ([…]). [BIM1]=2 μM. After addition of probes, cells were analyzed at room temperature every 5 min as singletons. Living cells with the greatest green fluorescence from expression of mVenus (top 20%, transfected) and the lowest green fluorescence (bottom 20%, non-transfected) were gated to obtain median PB450 values of uptake of the fluorescent probes. For the slower kinetics of uptake of probe 3, cells were analyzed every 20 min in triplicate. These curves were fitted with a one-phase association model (GraphPad Prism 9) to determine t1/2 values.

The target of another data set is T2, PKCβI-mVenus (Mus musculus, UniProt P68404).
T2 construct: we generated expression vectors for eight full-length mouse isozymes; expressed in transfected cells; host or cells: HEK293 (ATCC CRL-1573), transient transfection with CMV-PKC betaI-mVenus-N1
Kind of data set: Confocal microscopy of translocation of PKCβI-mVenus in HEK293 cells. It counts as cell-based. To be noted: 2 μM, 2 h. The procedure: FIGS. 36A-36D provide confocal and DIC micrographs of living HEK293 cells transiently transfected to express PKCβI-mVenus. […] Scale bars=10 microns.
This IRES vector was derived from a previously reported^52 variant encoding the somewhat less fluorescent protein Venus.
Living cells cultured on an 8-well chamber glass slide (Ibidi μ-Slide, 300 μL, 100,000 cells/well) were imaged with an inverted Leica TCS SP8 confocal laser-scanning microscope (63× oil-immersion objective). Fluorescent probes were excited at 405 nm and mVenus was excited at 488 nm. Emitted photons were collected from 425-500 nm and 500-650 nm. For imaging, transiently transfected HEK293 cells in complete medium (10% FBS) were plated on the Ibidi μ-Slide for 16 h to promote adherence. Concentrated stock solutions of fluorescent probes in DMSO were serially diluted 500-fold in serum-free DMEM medium to afford 2× stock solutions (0.2% DMSO). Half of the cell culture medium (150 μL) was carefully removed by pipet and gently replaced with the 2× stock solution of the probe in serum-free medium (final [FBS]˜5%). Cells were treated with probes (2 μM) at 37° C. for 2 h before imaging by microscopy. Laser power and PMT gain settings were identical for all images and controls within a given experiment for accurate comparisons of cellular fluorescence.

The target of a further data set is T3, murine PKCβI-mVenus (Mus musculus, UniProt P68404).
T3 construct: fused on or other part: mVenus at the C-terminus
Kind of data set: FPCBA saturation binding, HEK293 cells expressing PKCβI-mVenus (Example 3). To be noted: BIM1 2 μM, 2 h at 37° C., 4% FBS.
Description: as §1

These results are taken from patent US20230146870A1, “METHOD TO QUANTIFY AFFINITY AND SELECTIVITY OF SMALL MOLECULES FOR PROTEINS IN LIVING CELLS” (Ohio State Innovation Foundation, priority 2021, published 2023).

SMILES strings stand for the structures. Several values for one entry are separate records, joined by “and”; a condition that tells them apart may be missing. Equal values may be shown once.

T2 sequence (P68404 whole entry): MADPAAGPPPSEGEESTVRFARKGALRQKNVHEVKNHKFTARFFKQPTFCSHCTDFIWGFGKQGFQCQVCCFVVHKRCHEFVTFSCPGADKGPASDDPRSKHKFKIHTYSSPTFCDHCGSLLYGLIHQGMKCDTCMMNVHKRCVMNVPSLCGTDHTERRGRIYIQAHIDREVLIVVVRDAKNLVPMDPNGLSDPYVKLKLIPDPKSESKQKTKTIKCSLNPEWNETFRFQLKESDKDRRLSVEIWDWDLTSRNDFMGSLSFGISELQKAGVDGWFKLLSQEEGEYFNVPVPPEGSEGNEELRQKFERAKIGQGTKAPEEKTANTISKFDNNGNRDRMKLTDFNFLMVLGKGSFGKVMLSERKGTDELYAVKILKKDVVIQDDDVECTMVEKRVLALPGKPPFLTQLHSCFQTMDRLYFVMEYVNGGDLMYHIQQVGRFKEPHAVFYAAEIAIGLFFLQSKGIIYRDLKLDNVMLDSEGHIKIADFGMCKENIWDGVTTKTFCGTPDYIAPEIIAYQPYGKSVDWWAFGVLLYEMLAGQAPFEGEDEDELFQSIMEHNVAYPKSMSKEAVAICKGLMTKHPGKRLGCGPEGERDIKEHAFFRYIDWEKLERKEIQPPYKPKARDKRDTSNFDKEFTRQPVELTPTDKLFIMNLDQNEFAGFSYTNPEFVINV
T3 sequence (P68404 2-621 limits assumed): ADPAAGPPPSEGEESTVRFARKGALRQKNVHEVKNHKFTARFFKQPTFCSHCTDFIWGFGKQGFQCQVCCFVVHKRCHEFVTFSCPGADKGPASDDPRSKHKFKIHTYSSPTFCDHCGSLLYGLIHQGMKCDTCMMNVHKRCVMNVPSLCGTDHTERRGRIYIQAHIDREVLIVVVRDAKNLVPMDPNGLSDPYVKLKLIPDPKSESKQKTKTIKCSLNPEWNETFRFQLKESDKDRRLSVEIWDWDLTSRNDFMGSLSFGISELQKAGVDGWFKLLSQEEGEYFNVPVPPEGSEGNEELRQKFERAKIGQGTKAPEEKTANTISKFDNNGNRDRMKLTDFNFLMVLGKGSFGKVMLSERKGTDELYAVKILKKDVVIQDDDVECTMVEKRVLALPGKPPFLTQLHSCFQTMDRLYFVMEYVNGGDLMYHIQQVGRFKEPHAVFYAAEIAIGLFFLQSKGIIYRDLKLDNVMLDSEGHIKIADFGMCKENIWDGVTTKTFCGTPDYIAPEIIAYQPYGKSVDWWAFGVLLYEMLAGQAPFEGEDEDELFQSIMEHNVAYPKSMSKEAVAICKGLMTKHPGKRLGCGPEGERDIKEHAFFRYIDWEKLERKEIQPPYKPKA

Turning to `NC(=O)c1cc2c3ccccc3ccn2c1-c1ccccc1` [NSC 93427], in data set [1], the “cooperativity factor α” value is given as 0.02. The Kb in data set [1] (read-out: cellular Kb (allosteric modulator)) is 485 nM and 483 nM. Also, in data set [2] (10 μM), the “inhibition of cellular fluorescence” value was “nearly complete inhibition”. The IC50 (in general, the concentration needed to halve the response being measured) in data set [2] (HeLa cells, PB-GABA-Taxol) is < 1000 nM. In addition, the fluorescent microtubule phenotype result in [3] is listed as “dose-dependent disruption of microtubules”.

As for `CC(=O)O[C@H]1C(=O)[C@]2(C)[C@@H](OC(=O)CCCNC(=O)c3cc4cc(F)c(O)c(F)c4oc3=O)C[C@H]3OC[C@@]3(OC(C)=O)[C@H]2[C@H](OC(=O)c2ccccc2)[C@]2(O)C[C@H](OC(=O)[C@H](O)[C@@H](NC(=O)c3ccccc3)c3ccccc3)C(C)=C1C2(C)C` [PB-GABA-Taxol], the dissociation constant Kd (commonly the concentration at which binding is half-saturated) is 265 nM in data set [4] and 1700 ± 400 nM in [6] (HeLa cells, 4% FBS, 37° C., verapamil 100 μM, 3 h, read-out: cellular Kd of PB-GABA-Taxol for microtubules). In the data set on HeLa cells [5] (37° C., verapamil 100 μM), the cells remaining viable is reported as > 90%. In addition, in the data set on HeLa cells [5] (binding assay conditions, even with 100 μM paclitaxel), the changes in viability result is “less than 10%”. Besides, in [6] (10% FBS vs 4% or 1% FBS), the “reduction of apparent affinity by ligand depletion in 10% FBS” value is 2 fold. The “half-time (t1/2) to equilibration of cellular fluorescence” value in the data set on HeLa cells [7] (37° C., verapamil 100 μM) amounted to 0.55 h; in the data set on HeLa cells [7] (room temperature (23° C.)), 1.45 h.

As for `CC(=O)O[C@H]1C(=O)[C@@]2(C)[C@H]([C@H](OC(=O)c3ccccc3)[C@]3(O)C[C@H](O)C(C)=C1C3(C)C)[C@]1(OC(C)=O)CO[C@@H]1C[C@@H]2O` [baccatin III], the Ki (commonly the dissociation constant of the complex between target and ligand, obtained from inhibition or displacement) in [8] came out at 17000 ± 3000 nM. Moreover, in [4], the dissociation constant (Kd) was 6700 ± 2000 nM. Besides, in data set [2] (25 μM, 3 h, normalized to DMSO (0%) and paclitaxel 10 μM (100%)), the “inhibition of binding of PB-GABA-Taxol to cellular microtubules” value amounted to 28%.

Take `COc1cc2c(c(OC)c1OC)-c1ccc(OC)c(=O)cc1[C@@H](NC(C)=O)CC2` [colchicine]: the half-maximal inhibitory concentration (IC50) at 48 h in data set [9] (with verapamil 25 µM, verapamil 25 μM) amounted to 13 ± 0.4 nM; in data set [9] (without verapamil), 20 ± 8 nM.

For `CCCCCCN(CCCCCCCCCCCCNC(=O)c1cc2ccc(O)cc2oc1=O)C(=O)O[C@@]12[C@H](O)[C@@H](C)[C@@]3(O)[C@@H](C=C(CO)C[C@]4(O)C(=O)C(C)=C[C@@H]34)[C@@H]1C2(C)C` [probe 2, (1aR,1bS,4aR,7aS,7bS,8R,9R,9aS)-4a,7b,9-trihydroxy-3-(hydroxymethyl)-1,1,6,8-tetramethyl-5-oxo-1,1a,1b,4,4a,5,7a,7b,8,9-decahydro-9aH-cyclopropa[3,4]benzo[1,2-e]azulen-9a-yl hexyl(12-(7-hydroxy-2-oxo-2H-chromene-3-carboxamido)dodecyl)carbamate], in [10], the “half-time (t1/2) of cellular uptake in transfected cells” value is 0.233 h. The “translocation of PKCβI-mVenus” value on PKCβI-mVenus is given as “translocated to cellular membranes”. Moreover, the “Cellular Kd for probe, PKCβI-mVenus” value on murine PKCβI-mVenus is “prevented reliable measurements of cellular affinity”.

`CCCCCCN(CCCCCCCCCCCCNC(=O)c1cc2ccc(N(CC)CC)cc2oc1=O)C(=O)O[C@@]12[C@H](O)[C@@H](C)[C@@]3(O)[C@@H](C=C(CO)C[C@]4(O)C(=O)C(C)=C[C@@H]34)[C@@H]1C2(C)C` [probe 3, (1aR,1bS,4aR,7aS,7bS,8R,9R,9aS)-4a,7b,9-trihydroxy-3-(hydroxymethyl)-1,1,6,8-tetramethyl-5-oxo-1,1a,1b,4,4a,5,7a,7b,8,9-decahydro-9aH-cyclopropa[3,4]benzo[1,2-e]azulen-9a-yl (12-(7-(diethylamino)-2-oxo-2H-chromene-3-carboxamido)dodecyl)(hexyl)carbamate]: in data set [10], the “half-time (t1/2) of cellular uptake in transfected cells” value was > 1.67 h. The “translocation of PKCβI-mVenus” value on PKCβI-mVenus is given as “translocated to cellular membranes”.
